Each structure is given as a SMILES string. pIC50: −log10 of the molar value.

This experiment addresses T1, human IL-17A (Homo sapiens, UniProt Q16552).
T1 construct: purchased R&D Systems 7955-IL/CF
T1 sequence (Q16552 24-155): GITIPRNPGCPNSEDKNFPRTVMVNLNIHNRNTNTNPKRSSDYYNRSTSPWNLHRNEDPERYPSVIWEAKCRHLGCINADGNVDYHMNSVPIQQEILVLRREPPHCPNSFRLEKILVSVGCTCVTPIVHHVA
In words: IL-17A AlphaLISA competition assay (block of IL-17A binding to its receptor IL-17RA). The conditions noted are these: mean IC50 (n≥2), block of IL-17A binding to IL-17RA. An outline of the steps: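 Bead-based AlphaLISA competition in PBS with 0.05% Tween-20 and 0.1% BSA: compound first meets human IL-17A (7.5 nM stock) for 30 min, then IL-17RA/Fc (5 nM stock) for 90 min, all at room temperature, before acceptor/donor bead capture. IC50 fitted 4-parameter, DMSO and 4 μM reference inhibitor as controls; at least duplicate.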
Background: Bead proximity is the source of the signal in Alpha formats.

Consider `Cc1cc(COC(=O)N[C@H](C(=O)Nc2cc(CN3C[C@@H](C(F)(F)F)NC3=O)ccn2)C2CCC(F)(F)CC2)no1` [Example 57, (5-Methylisoxazol-3-v)methyl ((S)-1-(4,4-difluorocyclohexyl)-2-oxo-2-((4-(((S)-2-oxo-4-(trifluoromethyl)imidazolidin-1-VI)methyl)pyridin-2-yl)amino)ethyl)carbamate], for which the pIC50 – broadly, the negative decadic logarithm of the IC50, by convention in mol/L – is 5.71. The same measure for `Cc1cc(COC(=O)N[C@H](C(=O)Nc2cc(CN3C[C@@H](C(F)(F)F)NC3=O)ccn2)C2CCC(F)(F)CC2)nn1C` [Example 60, (1,5-Dimethyl-1H-pyrazol-3-yl)methyl ((S)-1-(4,4-difluorocyclohexyl)-2-oxo-2-((4-(((S)-2-oxo-4-(trifluoromethyl)imidazolidin-1-yl)methyl)pyridin-2-yl)amino)ethyl)carbamate]: 5.43; for `C[C@H]1CC[C@H]([C@H](NC(=O)c2nonc2C2CC2)C(=O)Nc2cc(CN3C[C@@H](C(F)(F)F)NC3=O)c(F)cn2)CC1` [Example 61, 4-cyclopropyl-N-((S)-2-((5-fluoro-4-(((S)-2-oxo-4-(trifluoromethyl)imidazolidin-1-yl)methyl)pyridin-2-yl)amino)-1-((1r,4S)-4-methylcyclohexyl)-2-oxo-ethyl)-1,2,5-oxadiazole-3-carboxamide]: 6.21; for `Cc1nonc1C(=O)N[C@H](C(=O)Nc1cc(CN2C[C@@H](C(F)(F)F)NC2=O)c(F)cn1)[C@H]1CC[C@H](C)CC1` [Example 62, N-((S)-2-((5-fluoro-4-(((S)-2-oxo-4-(trifluoromethyl)-imidazolidin-1-yl)methyl)-pyridin-2-yl)amino)-1-((1r,4S)-4-methylcyclo-hexyl)-2-oxoethyl)-4-methyl-1,2,5-oxadiazole-3-carboxamide]: 5.85. The same measure for `CC(C)n1nccc1C(=O)N[C@H](C(=O)Nc1cc(CN2C[C@@H](C(F)(F)F)NC2=O)c(F)cn1)[C@H]1CC[C@H](C)CC1` [Example 63, N-((S)-2-((5-fluoro-4-(((S)-2-oxo-4-(trifluoromethyl)-imidazolidin-1-yl)methyl)-pyridin-2-yl)amino)-1-((1r,4S)-4-methylcyclo-hexyl)-2-oxoethyl)-1-isopropyl-1H-pyrazole-5-carboxamide]: 6.48; for `Cn1nccc1C(=O)N[C@H](C(=O)Nc1cc(CN2C[C@@H](C(F)(F)F)NC2=O)c(F)cn1)[C@H]1CC[C@H](C)CC1` [Example 64, N-((S)-2-((5-fluoro-4-(((S)-2-oxo-4-(trifluoromethyl)-imidazolidin-1-yl)methyl)-pyridin-2-yl)amino)-1-((1r,4S)-4-methylcyclo-hexyl)-2-oxoethyl)-1-methyl-1H-pyrazole-5-carboxamide]: 5.91; for `C[C@H]1CC[C@H]([C@H](NC(=O)C2(F)CC2)C(=O)Nc2cc(CN3C[C@@H](C(F)(F)F)NC3=O)ccn2)CC1` [Example 67, 1-fluoro-N-((S)-1-((1r,4S)-4-methylcyclohexyl)-2-oxo-2-((4-(((S)-2-oxo-4-(trifluoromethyl)imidazolidin-1-yl)methyl)pyridin-2-yl)amino)ethyl)cyclopropane-1-carboxamide]: 6.09.

Take `Cc1nonc1COC(=O)N[C@H](C(=O)Nc1cc(CN2C[C@@H](C(F)(F)F)NC2=O)ccn1)C1CCC(F)(F)CC1` [Example 70, (4-Methyl-1,2,5-oxadiazol-3-yl)methyl ((S)-1-(4,4-difluorocyclohexyl)-2-oxo-2-((4-(((S)-2-oxo-4-(trifluoromethyl)imidazolidin-1-yl)methyl)pyridin-2-yl)amino)ethyl)carbamate]: the pIC50 is 5.10. Take `COCC(c1ccnc(NC(=O)[C@@H](NC(=O)c2ccnn2C)C2CCC(C)CC2)c1)N1C[C@@H](C(F)(F)F)NC1=O` (stereo partly drawn) [Example 76, N-((1S)-2-((4-(2-methoxy-1-((S)-2-oxo-4-(trifluoro-methyl)imidazolidin-1-yl)ethyl)pyridin-2-yl)amino)-1-((1r,4S)-4-methylcyclohexyl)-2-oxoethyl)-1-methyl-1H-pyrazole-5-carboxamide]: the pIC50 is 7.03. The same measure for `Cc1n[nH]c(C)c1Cc1ccnc(NC(=O)[C@@H](NC(=O)OC(C)(C)C)[C@H]2CC[C@H](C)CC2)c1` [Example 79, Tert-butyl ((S)-2-((4-((3,5-dimethyl-1H-pyrazol-4-yl)methyl)pyridin-2-yl)amino)-1-((1r,4S)-4-methylcyclohexyl)-2-oxoethyl)carbamate]: 5.28; for `CC(C)(C)OCC(NC(=O)c1nonc1C1CC1)C(=O)Nc1cc(CN2C[C@@H](C(F)(F)F)NC2=O)ccn1` (stereo partly drawn) [Example 82, N-(3-(tert-butoxy)-1-oxo-1-((4-(((S)-2-oxo-4-(trifluoromethyl)imidazolidin-1-yl)methyl)pyridin-2-yl)amino)propan-2-yl)-4-cyclopropyl-1,2,5-oxadiazole-3-carboxamide]: 5.93; for `Cn1nccc1C(=O)NC(COC(C)(C)C)C(=O)Nc1cc(CN2C[C@@H](C(F)(F)F)NC2=O)ccn1` (stereo partly drawn) [Example 83, N-(3-(tert-butoxy)-1-oxo-1-((4-(((S)-2-oxo-4-(trifluoromethyl)imidazolidin-1-yl)methyl)pyridin-2-yl)amino)propan-2-yl)-1-methyl-1H-pyrazole-5-carboxamide]: 5.15. `O=C(CCC(F)(F)F)NC(c1ccnc(NC(=O)[C@@H](NC(=O)c2nonc2C2CC2)C2CCC(F)(F)CC2)c1)C1CC1` (stereo partly drawn) [Example 96, 4-Cyclopropyl-N-((1S)-2-((4-(cyclopropyl(4,4,4-trifluorobutanamido)-methyl)pyridin-2-yl)amino)-1-(4,4-difluorocyclohexyl)-2-oxoethyl)-1,2,5-oxadiazole-3-carboxamide]: the pIC50 was 7.02. The same measure for `C[C@H]1CC[C@H]([C@H](NC(=O)NCc2ccccc2)C(=O)Nc2cc(CN3C[C@@H](C(F)(F)F)NC3=O)ccn2)CC1` [Example 97, (S)-2-(3-Benzylureido)-2-((1r,4S)-4-methylcyclohexyl)-N-(4-(((S)-2-oxo-4-(trifluoromethyl)imidazolidin-1-yl)methyl)pyridin-2-yl)acetamide]: 5.68; for `COCC(c1ccnc(NC(=O)[C@@H](NC(=O)c2ncccc2C)[C@H]2CC[C@H](C)CC2)c1)N1C[C@@H](C(F)(F)F)NC1=O` (stereo partly drawn) [Example 98, N-((1S)-2-((4-(2-Methoxy-1-((S)-2-oxo-4-(trifluoromethyl)imidazolidin-1-yl)ethyl)pyridin-2-yl)amino)-1-((1r,4S)-4-methylcyclohexyl)-2-oxoethyl)-3-methyl-picolinamide]: 5.71; for `O=C(NCc1ccccc1)N[C@H](C(=O)Nc1cc(CN2C[C@@H](C(F)(F)F)NC2=O)ccn1)C1CCC(F)(F)CC1` [Example 99, (S)-2-(3-Benzylureido)-2-(4,4-difluorocyclohexyl)-N-(4-(((S)-2-oxo-4-(trifluoromethyl)imidazolidin-1-yl)methyl)pyridin-2-yl)acetamide]: 5.17. Regarding `C[C@@H](OC(C)(C)C)[C@@H](NC(=O)OCc1ccccc1)C(=O)Nc1cc(CN2C[C@@H](C(F)(F)F)NC2=O)ccn1` [Example 100, Benzyl ((2R,3R)-3-(tert-butoxy)-1-oxo-1-((4-(((S)-2-oxo-4-(trifluoromethyl)imidazolidin-1-yl)methyl)pyridin-2-yl)amino)butan-2-yl)carbamate], the pIC50 was 4.76.

`C[C@@H](OC(C)(C)C)[C@H](NC(=O)OCc1ccccc1)C(=O)Nc1cc(CN2C[C@@H](C(F)(F)F)NC2=O)ccn1` [Example 101, benzyl ((2S,3R)-3-(tert-butoxy)-1-oxo-1-((4-(((S)-2-oxo-4-(trifluoromethyl)imidazolidin-1-yl)methyl)pyridin-2-yl)amino)butan-2-yl)carbamate] gave a pIC50 of 5.27.

Turning to `C[C@@H](OC(C)(C)C)[C@H](NC(=O)c1nonc1C1CC1)C(=O)Nc1cc(CN2C[C@@H](C(F)(F)F)NC2=O)ccn1` [Example 102, N-((2S,3R)-3-(tert-butoxy)-1-oxo-1-((4-(((S)-2-oxo-4-(trifluoromethyl)-imidazolidin-1-yl)methyl)pyridin-2-yl)amino)butan-2-yl)-4-cyclopropyl-1,2,5-oxadiazole-3-carboxamide], the pIC50 was 6.45.

Regarding `C[C@@H](OC(C)(C)C)[C@H](NC(=O)c1ccnn1C)C(=O)Nc1cc(CN2C[C@@H](C(F)(F)F)NC2=O)ccn1` [Example 103, N-((2S,3R)-3-(tert-butoxy)-1-oxo-1-((4-(((S)-2-oxo-4-(trifluoromethyl)-imidazolidin-1-yl)methyl)pyridin-2-yl)amino)butan-2-yl)-1-methyl-1H-pyrazole-5-carboxamide], the pIC50 was 5.76.

The compound `CC(C)(C)OC(=O)N[C@H](C(=O)Nc1cc(CN2C[C@@H](C(F)(F)F)NC2=O)ccn1)C(C1CC1)C1CC1` [Example 104, Tert-butyl ((S)-1,1-dicyclopropyl-3-oxo-3-((4-(((S)-2-oxo-4-(trifluoro-methyl)imidazolidin-1-yl)methyl)pyridin-2-yl)amino)propan-2-yl)carbamate] showed a pIC50 of 6.03. The same measure for `O=C(CCC(F)(F)F)NC(c1ccnc(NC(=O)[C@@H](NC(=O)c2ncco2)C2CCC(F)(F)CC2)c1)C1CC1` (stereo partly drawn) [Example 105, N-((1S)-2-((4-(cyclopropyl(4,4,4-trifluorobutanamido)methyl)pyridin-2-yl)amino)-1-(4,4-difluorocyclohexyl)-2-oxoethyl)oxazole-2-carboxamide]: 5.48. The same measure for `CC(C)n1nccc1C(=O)N[C@H](C(=O)Nc1cc(C(NC(=O)CCC(F)(F)F)C2CC2)ccn1)[C@H]1CC[C@H](C)CC1` (stereo partly drawn) [Example 106, N-((1S)-2-((4-(cyclopropyl(4,4,4-trifluorobutanamido)methyl)pyridin-2-yl)amino)-1-((1r,4S)-4-methylcyclohexyl)-2-oxoethyl)-1-isopropyl-1H-pyrazole-5-carboxamide]: 7.51.

The values are drawn from patent publication US20260200928A1, “THERAPEUTIC COMPOUNDS” (Sanofi, priority 2022, published 2026).
